Test results published in US20040110680A1, “Beta-alethine use in cell culture and therapy” (Regents of the University of New Mexico, priority 1990, published 2004).

How the values were obtained:
[1] = test system: NS-1 myeloma cells; assay: NS-1 myeloma in inoculated mice, early intervention; type: in vivo
Excerpt: To assure NS-1 propagation in vivo it is essential to remove DMSO (the cryostatic agent dimethyl sulfoxide) through several medium changes and dilutions; this also serves to maintain the cells in log-phases growth. […] The mice were maintained with Wayne Rodent Blox (Wayne Research Animal Diets, Chicago, Ill., USA) ad lib. and tap water.
The inoculated mice were compared to a) untreated controls and b) to carrier-injected (saline-injected) controls.

[2] = test system: Murine hepatocytes; assay: Adaptation of culture-resistant hepatocytes to culture (colony count); type: cell-based, BALBc/J mice
Excerpt: FIG. 4 illustrates data from a single experiment designed to study the use of β-alethine for adapting cells to culture. The culture-resistant cells employed (hepatocytes) were taken from in vivo to in vitro growth. Murine hepatocytes were chosen owing to their being especially difficult to adapt to culture. […] In this experiment a single liver lobe from one of the BALBc/J mice was excised, pressed through a 90 mesh stainless steel screen, washed, and placed in T-25 tissue culture flasks (10 for LUX, Flow General, McClean, Md., USA). All cultures were maintained in 10 ml of the same medium as described in Example III (RPMI-1640 plus fetal calf serum plus pen/strep plus L-glutamine) and the test cultures exposed to various concentrations of β-alethine as indicated in FIG. 4. […] It was possible to obtain some viable colonies from the control cultures, but only if 10- to 20-fold higher initial cell concentrations were used; therefore the β-alethine was between 500- and 1000-fold more efficient in adapting murine hepatocytes to in vitro culture than control, i.e., saline-treated medium. […] The effect is again dose-dependent, as illustrated.

[3] = test system: human peripheral blood leukocytes (HPBLs); assay: Non-antigen-specific immunoglobulin synthesis and secretion by HPBLs, protein-A facilitated plaque assay (Ig-PFC); type: cell-based
Excerpt: FIG. 2 illustrates data from a series of experiments designed to assess the effect of β-alethine on non-antigen-specific immunoglobulin synthesis and secretion in vitro by human peripheral blood leukocytes (HPBLs), generally characterized as a peripheral lymphoid organ primarily populated by medium-sized, mature lymphocytes. In these experiments, blood was taken from healthy male humans; the blood was then defibrinated on glass beads, and the leukocytes separated by centrifugation (buffy coat technique). Residual red blood cells were lysed with a brief treatment with 0.85% ammonium chloride. The leukocytes were counted and dispensed into 24 well tissue culture trays (LUX, Flow General, McClean, Md., USA) in 1 ml of RPMI 1640 basal medium supplemented with penicillin, streptomycin, 10% fetal calf serum, and L-glutamine. β-alethine was added to test cultures at various concentrations in 30 microliter doses. The cells were harvested as indicated in FIG. 2 at various times between 72 and 144 hours of culture and tested for antibody production using a conventional protein-A facilitated plaque assay (A-PFC or Ig-PFC). […] In addition, aliquots of cells were also tested for proliferation status by treating them with 0.5 μCi of tritiated thymidine (6-9 Ci/mole) followed by assessing the level of incorporation of radioactivity into newly synthesized DNA. […]

[4] = test system: NS-1 myeloma cells; type: in vivo; conditions: single mouse, 100 μg/kg; tumor cells remained in skeletal muscle, subcutaneous tissue, a mammary gland
Method: NS-1 myeloma cells (ATCC TIB 18, P3/NS1/1-Ag4-1) were employed as inoculant; these cells have proven to be about 90% effective in establishing myelomas in mice according to the exemplified procedure, and the untreated myelomas are substantially fatal within about two weeks.
The cells were grown for several passages (preferably one week) in a sterile environment consisting of RPMI 1640 (Whittaker M. A. Bioproducts, Walkersville, Md., USA) containing 10% fetal calf serum (Hyclone Laboratories, Logan, Utah, USA), 2 mM L-glutamine, 5,000 units of penicillin, and 5 mg streptomycin in 75 cm^2 polystyrene tissue-culture flasks (Corning Glassworks, Corning, N.Y., USA) in a humidified chamber at 37° C. and under 6% CO2. To assure NS-1 propagation in vivo it is essential to remove DMSO (the cryostatic agent dimethyl sulfoxide) through several medium changes and dilutions; this also serves to maintain the cells in log-phases growth. […]
Wasting of the tumor and not the mouse proper was confirmed by weighing the debulked carcass. […] It was thus tentatively determined that the bone demineralized due to rapid growth of the tumor resulting in the fracture, a process which requires calcium and phosphate, and which would also explain the subsequent rapid extraskeletal deposition of calcium phosphate as the tumor was resorbed.

[5] = test system: IMR-90 human fetal lung fibroblasts; assay: Maximum population doubling level (PDL) of IMR-90 fibroblasts, delay of cellular senescence; type: cell-based
Excerpt: This cell line is available from the American Type Culture Collection (ATCC, Bethesda, Md., USA) and is used as a standard for in vitro cellular senescence studies. Cellular senescence is loosely defined as those cellular process(es) that together result in the cell's inability to replenish itself in culture. This model represents aging processes in vivo, and cell lines developed from humans of different ages have PDL's in vitro which are inversely related to the chronological age of the donor. The IMR-90 cells depicted in FIG. 1 were grown under ideal conditions in McCoy's 5A synthetic medium supplemented with HEPES buffer at 10 mM; 100 units penicillin G/ml and 100 μg streptomycin/ml at standard concentrations; new born calf serum (NBCS) at 20% (V/V); and L-glutamine at 2 mM. The treated cell cultures were augmented with different concentrations of β-alethine (as indicated) dissolved in phosphate-buffered saline (PBS)—-always in a standard volume of 30 microliters per culture. […] The cells were then washed twice with the complete medium and counted in a double Neubauer hemacytometer; 2 million cells were aliquoted into a fresh tissue culture flask (T-75, polystyrene by LUX, Flow General, McClean, Md., USA) with 20 ml of fresh complete medium. […]

[6] = The Merck Index, 9th edition (#221); cited from earlier work
[7] = i.p., Monday, Wednesday, Friday from day 2 through day 47

Compound	deaths ([1]; 10 pg/kg mouse)	normal weight gain of the mice ([1]; 10 μg/kg)	persistence of the palpable tumor before regression ([1]; 10 μg/kg, one mouse) [days]	normal weight gain of the mice ([1]; 100 μg/kg)	fraction of animals that ultimately contracted tumor ([1]; at about 10 pg/kg or 1 ng/kg, without treatment 75% euthanized or died)	mice developing a palpable tumor ([1]; at about 10 μg/kg or 100 μg/kg)	therapeutic minimal threshold (lower end of effective range) for preventing onset of NS-1 myeloma [1, 7] [pg/kg mouse]	upper end of effective concentration range for preventing onset of NS-1 myeloma [1, 7] [μg/kg mouse]	morphology of tumors developing under therapy ([1]; untreated controls typically developed ascites)	colonies of hepatocytes observed ([2]; 10 ng/ml, no colonies in the control culture)	stability of treated cells in culture ([2]; long-term culture, in contrast to control cells)	optimal concentration for immunoglobulin production ([3]; HPBLs)	immunoglobulin production relative to untreated control ([3]; dose-dependent, 72 to 144 hours of culture)	tumor cells in remaining organs (histology) [4]	increase in cell number (biomass) ([5]; absolute terms, factor of 2 raised to the power 55)	life expectancy of the cells ([5]; augmentation of growth versus untreated cells)	stability in air and aqueous solutions [6]
NCCC(=O)NCCSSCCNC(=O)CCN [β-alethine, N,N′-bis-(β-alanyl-2-aminoethyl) Disulfide]	two deaths	not significantly	20	slightly inhibited	one-third to two-thirds	only one mouse developed a palpable tumor	10	100	with few exceptions solid masses	approximately 50 colonies	stable in culture	about 5 nanograms/ml culture	approximately 60 times the untreated control levels	none of the remaining organs contained tumor cells	3.6×10^16 fold	doubling of the life expectancy	
NCCC(=O)NCCS [β-aletheine]																	unstable in air and aqueous solutions
